# Marks after values point to notes of the source that are not given here.
# Tested on: healthy subjects subjected to a transient insomnia protocol
# Assay: Transient insomnia protocol (2 hour phase advance), double blind cross-over, overnight PSG and morning self-report
# Type: in vivo, human
# From the text: Twenty-four (24) healthy subjects aged 18-65 years (inclusive) with no insomnia were recruited for this study. […] Individuals were also excluded if they had excessive daytime sleepiness indicated by an Epworth Sleepiness Score (ESS) of >9 or a chronic sleep disturbance indicated by a Pittsburgh Sleep Questionnaire Inventory (PSQI) score of >5. Shift workers or subjects with irregular sleep schedules were excluded. Women of child-bearing potential who used medically acceptable methods of contraception were allowed to participate. Subjects were excluded if they had any of the following: BMI≧30; symptoms of gastroesophageal reflux such as heartburn on a regular basis; history of allergic reaction or hyper-sensitivity to benzodiazepines or CNS depressants; or evidence of any clinically significant medical abnormality or chronic disease indicated on laboratory screen or physical exam. Subjects were also excluded if they had any of the following: a history of alcohol or drug abuse; consume >2 alcoholic beverages on a single day and >14 beverages weekly; or >5 cigarettes a day and could not forego smoking for up to 14 hours while in the sleep lab. Participants abstained from over-the-counter medications within 7 days of the polysomnographic (hereinafter “PSG”) evaluation (except accepted birth control medication, NSAIDS/acetaminophen for infrequent pain not considered clinically significant). Participants abstained from alcohol for 24 hours and caffeine for 6 hours prior to each PSG evaluation. Eligible participants were required to report normal sleep patterns during the week before each PSG defined as a bedtime between 21:00 and 24:00 on at least 5 of 7 consecutive nights, with reported sleep duration between 7-9 hours, and no more than 2 naps a week.
# The present study was a single-site study approved by Aspire Institutional Review Board. The study design was a double blind cross-over study. Subjects gave written informed consent prior to any study-related procedures. The study consisted of a screening session and two overnight PSGs. The treatments consisted of baclofen 20 mg and placebo. The screening session consisted of a medical screening visit to determine eligibility and safety for each subject. Eligible subjects were randomized into two treatment sequences based on a random permutation algorithm. One treatment sequence received baclofen 20 mg on the night of the first PSG, then placebo on the night of the second PSG. The other treatment sequence received placebo on the night of the first PSG, then baclofen 20 mg on the night of the second PSG. Subjects were given a 7 day sleep diary to complete immediately prior to the first sleep study. Subjects were given a second 7 day sleep diary to complete immediately prior to the second sleep study. Lights out was determined as two hours earlier than the subject's median habitual bedtime indicated in the diary prior to each PSG. Study drug (baclofen 20 mg or placebo) was administered 90 minutes prior to lights out.
# On the PSG nights, respiratory effort and airflow, oxygen saturation, leg and chin EMGs were recorded in addition to the routine PSG measures to exclude subjects with sleep-related breathing disorders and periodic limb movement disorder. […] PSG measures consisted of the following: wake after sleep onset (WASO), total sleep time (TST), sleep onset latency (SOL), sleep efficiency (SE), percent sleep stage 1, percent sleep stage 2, percent sleep stages 3 and 4 combined, percent sleep REM. Self-report measures consisted of the following: subjective TST (sTST), subjective SOL (sSOL), subjective number of awakenings from sleep (sNAS), subjective sleep quality (sSQ). All PSGs were analyzed by one of the authors blinded to the treatment groups. […]
# [1] = PSG measure, percentage of TST, baclofen 20 mg
# [2] = PSG measure, baclofen 20 mg 90 minutes prior to lights out, n=20
# [3] = baclofen 20 mg vs placebo, not significant
# [4] = baclofen 20 mg vs placebo, p < 0.01
# [5] = baclofen 20 mg vs placebo, p < 0.05
# [6] = self-report, morning questionnaire, baclofen 20 mg
structure (smiles),measurement,setting,value
"NCC(CC(=O)O)c1ccc(Cl)cc1 (stereo not drawn) [Baclofen, 4-amino-3-(4-chlorophenyl)-butanoic acid]",REM,[1],24.1 ± 1.3%
same,Stage 1,[1],2.3 ± 0.3%
same,Stage 2,[1],58.9 ± 2.0%
same,Stage 3/4,[1],14.7 ± 1.4%
same,SE,[2],90.6 ± 1.2%
same,SOL,[2],19.4 ± 3.8 min
same,TST,[2],435.4 ± 5.8 min
same,WASO,[2],25.6 ± 4.0 min
same,SOL Absolute Change,[3],-0.4 min
same,sSOL Absolute Change,[3],-1.0 min
same,sTST Absolute Change,[3],0.3 h
same,REM Absolute Change,"baclofen 20 mg vs placebo, not significant (p=0.067)",3.5%
same,Stage 2 Absolute Change,"baclofen 20 mg vs placebo, not significant (p=0.092)",−3.9%
same,Stage 1 Absolute Change,"baclofen 20 mg vs placebo, p < 0.001",−1.8*** %
same,TST Absolute Change,[4],27.7** min
same,sNAS Absolute Change,[4],−1.3** #
same,Stage 3/4 Absolute Change,[5],2.7* %
same,WASO Absolute Change,[5],−28.4* min
same,sSQ Absolute Change,[5],−0.5* scale 1-4
same,"baclofen data better than zolpidem (decrease in WASO, increase in SE)","baclofen 20 mg vs zolpidem 10 mg (WASO 9.4 min, SE 3.7%), 2 hr phase advance",2-4 fold
same,sSOL,[6],25.0 ± 4.1 min
same,sTST,[6],7.1 ± 0.2 h
same,sNAS,"self-report, number of awakenings, baclofen 20 mg",2.4 ± 0.4
same,sSQ,"self-report, 1 = good, 2 = average, 3 = below average, 4 = poor, baclofen 20 mg",1.9 ± 0.2 scale 1-4
same,TST,"↑ increase compared to placebo, 20 mg, 2 hour phase-advance, current study",↑ 27.7 min
same,SOL,"↓ decrease compared to placebo, NS, 20 mg, 2 hour phase-advance, current study",↓ 0.4^NS min
same,"wake after sleep onset (WASO), change vs placebo","↓ decrease compared to placebo, 20 mg, 2 hour phase-advance, current study",↓ 28.3 min
